Data as given in US9556158B2, “Fungicidal 3-[(pyridin-2-ylmethoxyimino)(phenyl)methyl]-2-substituted-1,2,4-oxadiazol-5(2H)-one derivatives” (BAYER INTELLECTUAL PROPERTY GMBH, priority 2011, dated 2017).

Conditions: pH 2.7, LogP, HPLC on reversed phase columns, pH 2.7, 0.1% formic acid in water / acetonitrile gradient

Compound | chromatographic logP
Cn1oc(=O)nc1/C(=N\OCc1cccc(N)n1)c1ccccc1 [Example 11, 3-[(Z)-{[(6-aminopyridin-2-yl)methoxy]imino}(phenyl)methyl]-2-methyl-1,2,4-oxadiazol-5(2H)-one] | 0.84
COc1cccc(C(=NOCc2cccc(N)n2)c2nc(=O)on2C)c1 [Example 24] | 1.03
CC(C)n1oc(=O)nc1C(=NOCc1cccc(NC(=O)OC(C)(C)C)n1)c1ccccc1 [Example 41] | 3.8
COCCn1oc(=O)nc1C(=NOCc1cccc(NC(=O)OC(C)(C)C)n1)c1ccccc1 [Example 42] | 3.61
COc1cccc(C(=NOCc2cccc(NC(=O)c3cccc(C)c3)n2)c2nc(=O)o[nH]2)c1 [Example 61] | 3.31
COc1cccc(C(=NOCc2cccc(NC(=O)c3ccc(F)cc3)n2)c2nc(=O)o[nH]2)c1 [Example 62] | 3.09
COc1cccc(C(=NOCc2cccc(NC(=O)c3ccccc3)n2)c2nc(=O)o[nH]2)c1 [Example 67] | 2.96
Cc1ccc(C(=O)Nc2cccc(CON=C(c3cccc(F)c3)c3nc(=O)o[nH]3)n2)cc1 [Example 77] | 3.33
Cc1cccc(C(=NOCc2cccc(NC(=O)CCc3ccccc3)n2)c2nc(=O)on2C)c1 [Example 79] | 3.48
Cc1cccc(C(=NOCc2cccc(NC(=O)Cc3ccccc3)n2)c2nc(=O)on2C)c1 [Example 81] | 3.23
Cc1cccc(C(=O)Nc2cccc(CON=C(c3cccc(C)c3)c3nc(=O)on3C)n2)c1 [Example 86] | 3.55
COc1cccc(C(=O)Nc2cccc(CON=C(c3cccc(C)c3)c3nc(=O)on3C)n2)c1 [Example 88] | 3.31
Cn1oc(=O)nc1C(=NOCc1cccc(NC(=O)c2ccccc2)n1)c1cccc(F)c1 [Example 89] | 3
CC(C)CC(=O)Nc1cccc(CON=C(c2cccc(F)c2)c2nc(=O)on2C)n1 [Example 90] | 2.92
Cc1cccc(C(=NOCc2cccc(NC(=O)OCCC(C)C)n2)c2nc(=O)on2C)c1 [Example 91] | 4.03
Cn1oc(=O)nc1C(=NOCc1cccc(NC(=O)c2ccc(F)cc2)n1)c1cccc(F)c1 [Example 92] | 3.15
COc1cccc(C(=NOCc2cccc(NC(=O)C(C)(C)C)n2)c2nc(=O)on2C)c1 [Example 93] | 2.92
C#CCOC(=O)Nc1cccc(CON=C(c2cccc(OC)c2)c2nc(=O)on2C)n1 [Example 95] | 2.63
Cc1cccc(C(=NOCc2cccc(NC(=O)Cc3cccc(F)c3)n2)c2nc(=O)on2C)c1 [Example 98] | 3.31
C#CCOC(=O)Nc1cccc(CON=C(c2cccc(C)c2)c2nc(=O)on2C)n1 [Example 108] | 2.84
CCn1oc(=O)nc1C(=NOCc1cccc(N)n1)c1ccccc1 [Example 111] | 1.07
Cn1oc(=O)nc1C(=NOCc1cccc(NC(=O)OC(C)(C)C)n1)c1cccc(F)c1F [Example 113] | 3.39
Cn1oc(=O)nc1C(=NOCc1cccc(NC(=O)CC2CCCC2)n1)c1ccccc1 [Example 115] | 3.29
Cn1oc(=O)nc1C(=NOCc1cccc(NC(=O)C2CCCC2)n1)c1ccccc1 [Example 117] | 2.98
Cn1oc(=O)nc1C(=NOCc1cccc(NC(=O)OCCC2CCCC2)n1)c1ccccc1 [Example 118] | 4.26
Cn1oc(=O)nc1C(=NOCc1cccc(NC(=O)CCc2ccccc2)n1)c1ccccc1 [Example 119] | 3.21

Compound | chromatographic logP
CCCCCCC(=O)Nc1cccc(CON=C(c2ccccc2)c2nc(=O)on2C)n1 [Example 120] | 3.65
Cn1oc(=O)nc1C(=NOCc1cccc(NC(=O)OCC(C)(C)C)n1)c1ccccc1 [Example 121] | 3.7
C#CCCCOC(=O)Nc1cccc(CON=C(c2ccccc2)c2nc(=O)on2C)n1 [Example 122] | 2.94
C=CCCCCOC(=O)Nc1cccc(CON=C(c2ccccc2)c2nc(=O)on2C)n1 [Example 123] | 3.76
C#CCCCCOC(=O)Nc1cccc(CON=C(c2ccccc2)c2nc(=O)on2C)n1 [Example 124] | 3.21
C#CCC(C)OC(=O)Nc1cccc(CON=C(c2ccccc2)c2nc(=O)on2C)n1 (stereo not shown) [Example 125] | 2.98
Cn1oc(=O)nc1C(=NOCc1cccc(NC(=O)Cc2ccccc2)n1)c1ccccc1 [Example 126] | 2.94
Cn1oc(=O)nc1C(=NOCc1cccc(NC(=O)OCC2CCCCC2)n1)c1ccccc1 [Example 127] | 4.24
Cc1cccc(C(=O)Nc2cccc(CON=C(c3ccccc3)c3nc(=O)on3C)n2)c1 [Example 128] | 3.27
C=CCCCOC(=O)Nc1cccc(CON=C(c2ccccc2)c2nc(=O)on2C)n1 [Example 129] | 3.41
Cn1oc(=O)nc1C(=NOCc1cccc(NC(=O)OCCCC2CCCC2)n1)c1ccccc1 [Example 130] | 4.68
C#CCOC(=O)Nc1cccc(CON=C(c2ccccc2)c2nc(=O)on2C)n1 [Example 131] | 2.57
COc1cccc(C(=O)Nc2cccc(CON=C(c3ccccc3)c3nc(=O)on3C)n2)c1 [Example 132] | 3.02
Cn1oc(=O)nc1C(=NOCc1cccc(NC(=O)OCCCCl)n1)c1ccccc1 [Example 133] | 3.02
CC#CCOC(=O)Nc1cccc(CON=C(c2ccccc2)c2nc(=O)on2C)n1 [Example 134] | 2.84
Cn1oc(=O)nc1C(=NOCc1cccc(NC(=O)Cc2cccs2)n1)c1ccccc1 [Example 135] | 2.86
Cn1oc(=O)nc1C(=NOCc1cccc(NC(=O)C2(C)CCCCC2)n1)c1ccccc1 [Example 136] | 3.68
CCC#CCOC(=O)Nc1cccc(CON=C(c2ccccc2)c2nc(=O)on2C)n1 [Example 137] | 3.21
Cn1oc(=O)nc1C(=NOCc1cccc(NC(=O)OCCC2CC2)n1)c1ccccc1 [Example 138] | 3.39
Cn1oc(=O)nc1C(=NOCc1cccc(NC(=O)COc2ccccc2)n1)c1ccccc1 [Example 139] | 3.13
CC(Oc1ccccc1)C(=O)Nc1cccc(CON=C(c2ccccc2)c2nc(=O)on2C)n1 (stereo not shown) [Example 140] | 3.35
CC(OC(=O)Nc1cccc(CON=C(c2ccccc2)c2nc(=O)on2C)n1)C1CCCCC1 (stereo not shown) [Example 141] | 4.56
Cn1oc(=O)nc1C(=NOCc1cccc(NC(=O)c2csc3ccccc23)n1)c1ccccc1 [Example 142] | 3.65
Cn1oc(=O)nc1C(=NOCc1cccc(NC(=O)OCCCCCl)n1)c1ccccc1 [Example 143] | 3.27
CCCCC(C)C(=O)Nc1cccc(CON=C(c2ccccc2)c2nc(=O)on2C)n1 (stereo not shown) [Example 144] | 3.55
Cn1oc(=O)nc1C(=NOCc1cccc(NC(=O)CCC2CCCC2)n1)c1ccccc1 [Example 145] | 3.72

Compound | chromatographic logP
Cn1oc(=O)nc1C(=NOCc1cccc(NC(=O)C2CCCCC2)n1)c1ccccc1 [Example 146] | 3.29
Cn1oc(=O)nc1C(=NOCc1cccc(NC(=O)CCC2CCCCC2)n1)c1ccccc1 [Example 147] | 4.06
C#CCCCC(=O)Nc1cccc(CON=C(c2ccccc2)c2nc(=O)on2C)n1 [Example 149] | 2.6
CC#CCC(C)OC(=O)Nc1cccc(CON=C(c2ccccc2)c2nc(=O)on2C)n1 (stereo not shown) [Example 151] | 3.31
C=CCC(C)OC(=O)Nc1cccc(CON=C(c2ccccc2)c2nc(=O)on2C)n1 (stereo not shown) [Example 152] | 3.39
Cn1oc(=O)nc1C(=NOCc1cccc(NC(=O)OCCCC2CCCCC2)n1)c1ccccc1 [Example 153] | 5.06
CC(C(=O)Nc1cccc(CON=C(c2ccccc2)c2nc(=O)on2C)n1)c1ccccc1 (stereo not shown) [Example 155] | 3.29
CC#CCCOC(=O)Nc1cccc(CON=C(c2ccccc2)c2nc(=O)on2C)n1 [Example 156] | 3
Cn1oc(=O)nc1C(=NOCc1cccc(NC(=O)c2ccc(F)cc2)n1)c1ccccc1 [Example 157] | 3.04
Cn1oc(=O)nc1C(=NOCc1cccc(NC(=O)OCCC2CCCCC2)n1)c1ccccc1 [Example 158] | 4.63
Cc1ccc(C(=O)Nc2cccc(CON=C(c3ccccc3)c3nc(=O)on3C)n2)cc1 [Example 159] | 3.23
Cn1oc(=O)nc1C(=NOCc1cccc(NC(=O)c2ccccc2)n1)c1ccccc1 [Example 160] | 2.92
CC(C)CCOC(=O)Nc1cccc(CON=C(c2ccccc2)c2nc(=O)on2C)n1 [Example 161] | 3.74
COc1cccc(C(=NOCc2cccc(NC(=O)OCCc3ccccc3)n2)c2nc(=O)on2C)c1 [Example 162] | 3.61
Cn1oc(=O)nc1C(=NOCc1cccc(NC(=O)OCc2ccccc2)n1)c1cccc(F)c1 [Example 163] | 3.5
COc1cccc(C(=NOCc2cccc(NC(=O)CCc3ccccc3)n2)c2nc(=O)on2C)c1 [Example 164] | 3.27
Cn1oc(=O)nc1C(=NOCc1cccc(NC(=O)OCCc2ccccc2)n1)c1cccc(F)c1 [Example 165] | 3.65
COc1cccc(C(=NOCc2cccc(NC(=O)Cc3ccccc3)n2)c2nc(=O)on2C)c1 [Example 166] | 3.02
Cc1cccc(C(=NOCc2cccc(NC(=O)OCc3ccccc3)n2)c2nc(=O)on2C)c1 [Example 167] | 3.68
Cc1cccc(C(=NOCc2cccc(NC(=O)OCCc3ccccc3)n2)c2nc(=O)on2C)c1 [Example 168] | 3.85
CCCCCC(=O)Nc1cccc(CON=C(c2ccccc2)c2nc(=O)on2CC)n1 [Example 174] | 3.52
CCCCCC(=O)Nc1cccc(CON=C(c2ccccc2)c2nc(=O)on2CCOC)n1 [Example 175] | 3.5
CCC(C)(C)C(=O)Nc1cccc(CON=C(c2ccccc2)c2nc(=O)on2C)n1 [Example 176] | 3.17
CC(OC(=O)Nc1cccc(CON=C(c2ccccc2)c2nc(=O)on2C)n1)C1CCCC1 (stereo not shown) [Example 179] | 4.15
